Results taken from publication PMC6950245, “Identification and Characterization of ShSPI, a Kazal-Type Elastase Inhibitor from the Venom of Scolopendra Hainanum” (Toxins, 2019).
Where a SMILES comes first, the peptide text is derived from it. Bridges are numbered along the chain shown (N, C = ends).

Molecular target: T1, porcine pancreatic elastase (PPE) (Sus scrofa, UniProt P00772)
T1 construct: purchased Sigma-Aldrich E0127
T1 sequence (P00772 27-266): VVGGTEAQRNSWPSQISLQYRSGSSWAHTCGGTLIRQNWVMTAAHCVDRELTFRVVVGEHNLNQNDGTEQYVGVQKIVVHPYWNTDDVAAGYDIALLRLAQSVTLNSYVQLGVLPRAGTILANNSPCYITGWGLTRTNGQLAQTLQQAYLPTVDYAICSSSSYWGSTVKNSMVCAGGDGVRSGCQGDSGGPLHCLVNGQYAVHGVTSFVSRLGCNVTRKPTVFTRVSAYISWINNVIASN
Assay: not given
Set-up: method as in PMID 2049103
Conditions: reported; cited from earlier work
For `CC(C)(C)C(=O)Oc1ccc(S(=O)(=O)Nc2ccccc2C(=O)NCC(=O)O)cc1` [sivelestat], the “Inhibitory activity to PPE (literature)” value is given as “little inhibitory activity”.

Molecular target: T2, human neutrophil elastase (HNE) (Homo sapiens, UniProt P08246)
T2 construct: purchased Sigma-Aldrich E8140
T2 sequence (P08246 30-267): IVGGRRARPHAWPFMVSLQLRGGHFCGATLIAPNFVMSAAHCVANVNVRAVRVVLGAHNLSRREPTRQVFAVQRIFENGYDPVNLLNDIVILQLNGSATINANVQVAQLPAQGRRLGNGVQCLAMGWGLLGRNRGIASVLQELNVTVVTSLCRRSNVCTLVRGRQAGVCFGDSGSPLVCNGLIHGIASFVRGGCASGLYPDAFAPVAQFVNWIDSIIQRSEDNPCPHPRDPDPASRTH
Assay: Protease inhibition assay, human neutrophil elastase (chromogenic substrate, Dixon method)
Type: biochemical
Conditions: not given
Description: Human neutrophils elastase (HNE, E8140), porcine pancreatic elastase (PPE, E0127), cathepsin G (CG, C4428), human trypsin (T6424), α-chymotrypsin from human pancreas (C8946), and thrombin from human plasma (T4393) were all purchased from Sigma-Aldrich (USA). Factor Xa (FXa, HFXa 1011) and Factor XIIa (FXIIa, HFXIIa 1212a) were from Enzyme Research Laboratories (South Bend, IN, USA). Kallikrein from human plasma (420307) was from Merck Millipore (Billerica, MA, USA).
Substrate for HNE and PPE (MeOSuc-Ala-Ala-Pro-Val-pNA, 324696) was purchased from Merck Millipore (USA). Substrates for CG (Succinyl-Ala-Ala-Pro-Phe-pNA, 573462), trypsin (Nalpha-Benzoyl-L-arginine 4-nitroanilide hydrochloride, B3133), FXa (CH3OCO-D-CHA-Gly-Arg-pNA-AcOH, F3301), chymotrypsin (N-Succinyl-Gly-Gly-Phe-pNA, S1899), thrombin (β-Ala-Gly-Arg-pNA diacetate, T3068), and kallikrein (Z-Phe-Arg 7-amido-4-methylcoumarin hydrochloride, C9521) were purchased from Sigma-Aldrich (USA).
As mentioned in our previous study, experiments for protease inhibitory activity were assayed in buffer (0.05 M Tris-HCl, pH 7.8) at 37 °C. […] At the end of the incubation, the reaction was initiated by the addition of the exclusive substrate solution and monitored by recording the absorbance at 405 nm every 30 s for 30 min. Enzyme activity in each well was calculated based on the initial slope of the reaction curve, and percentage of the initial slope of the uninhibited reaction was expressed. The inhibition constant Ki value was determined according to the Dixon method.
For `CC[C@H](C)[C@@H]1NC(=O)[C@H](C)NC(=O)[C@@H]2CCCN2C(=O)[C@@H]2CSSC[C@H](NC(=O)[C@H](CO)NC(=O)[C@H](CC(N)=O)NC(=O)[C@H](CO)NC(=O)[C@H](Cc3ccc(O)cc3)NC(=O)[C@H](CCSC)NC(=O)[C@H](CCCNC(=N)N)NC(=O)CNC(=O)[C@H](Cc3ccccc3)NC(=O)[C@H](CCC(=O)O)NC(=O)[C@H](CC(=O)O)NC(=O)[C@H](Cc3ccccc3)NC(=O)[C@H](C(C)C)NC(=O)[C@@H]3CCCN3C(=O)[C@H](CCC(N)=O)NC(=O)[C@H](Cc3ccc(O)cc3)NC1=O)C(=O)N[C@@H](CCC(=O)O)C(=O)N[C@@H](CCSC)C(=O)N[C@@H](CCC(N)=O)C(=O)N[C@@H](CCCNC(=N)N)C(=O)N[C@@H](C)C(=O)N[C@@H](CCCNC(=N)N)C(=O)N[C@H](C(=O)N[C@@H](CC(C)C)C(=O)N[C@@H](CCCNC(=N)N)C(=O)NCC(=O)O)CSSC[C@H](N)C(=O)N1CCC[C@H]1C(=O)N[C@@H](CCC(N)=O)C(=O)N[C@@H](C)C(=O)N2` [V4A] (H-CPQACPAIYQPVFDEFGRMYSNSCEMQRARCLRG-OH; disulfide 1-31, 5-24), the Ki was 0.0132 µM.
With `CC[C@H](C)[C@@H]1NC(=O)[C@H](C)NC(=O)[C@@H]2CCCN2C(=O)[C@@H]2CSSC[C@H](NC(=O)[C@H](CO)NC(=O)[C@H](CC(N)=O)NC(=O)[C@H](CO)NC(=O)[C@H](Cc3ccc(O)cc3)NC(=O)[C@H](CCSC)NC(=O)[C@H](CCCNC(=N)N)NC(=O)CNC(=O)[C@H](Cc3ccccc3)NC(=O)[C@H](CCC(=O)O)NC(=O)[C@H](CC(=O)O)NC(=O)[C@H](Cc3ccccc3)NC(=O)[C@H](C(C)C)NC(=O)[C@@H]3CCCN3C(=O)[C@H](CCC(N)=O)NC(=O)[C@H](C)NC1=O)C(=O)N[C@@H](CCC(=O)O)C(=O)N[C@@H](CCSC)C(=O)N[C@@H](CCC(N)=O)C(=O)N[C@@H](CCCNC(=N)N)C(=O)N[C@@H](C)C(=O)N[C@@H](CCCNC(=N)N)C(=O)N[C@H](C(=O)N[C@@H](CC(C)C)C(=O)N[C@@H](CCCNC(=N)N)C(=O)NCC(=O)O)CSSC[C@H](N)C(=O)N1CCC[C@H]1C(=O)N[C@@H](CCC(N)=O)C(=O)N[C@@H](C(C)C)C(=O)N2` [Y9A] (H-CPQVCPAIAQPVFDEFGRMYSNSCEMQRARCLRG-OH; disulfide 1-31, 5-24) the Ki was greater than 1000 µM.
In the case of `CC[C@H](C)[C@@H]1NC(=O)[C@H](C)NC(=O)[C@@H]2CCCN2C(=O)[C@@H]2CSSC[C@H](NC(=O)[C@H](CO)NC(=O)[C@H](CC(N)=O)NC(=O)[C@H](CO)NC(=O)[C@H](Cc3ccc(O)cc3)NC(=O)[C@H](CCSC)NC(=O)[C@H](CCCNC(=N)N)NC(=O)CNC(=O)[C@H](Cc3ccccc3)NC(=O)[C@H](CCC(=O)O)NC(=O)[C@H](CC(=O)O)NC(=O)[C@H](Cc3ccccc3)NC(=O)[C@H](C(C)C)NC(=O)[C@@H]3CCCN3C(=O)[C@H](CCC(N)=O)NC(=O)[C@H](Cc3ccc(O)cc3)NC1=O)C(=O)N[C@@H](CCC(=O)O)C(=O)N[C@@H](CCSC)C(=O)N[C@@H](CCC(N)=O)C(=O)N[C@@H](CCCNC(=N)N)C(=O)N[C@@H](C)C(=O)N[C@@H](CCCNC(=N)N)C(=O)N[C@H](C(=O)N[C@@H](CC(C)C)C(=O)N[C@@H](CCCNC(=N)N)C(=O)NCC(=O)O)CSSC[C@H](N)C(=O)N1CCC[C@H]1C(=O)N[C@@H](C)C(=O)N[C@@H](C(C)C)C(=O)N2` [Q3A] (H-CPAVCPAIYQPVFDEFGRMYSNSCEMQRARCLRG-OH; disulfide 1-31, 5-24), the Ki is reported as 0.114 µM.
`CC[C@H](C)[C@@H]1NC(=O)[C@H](C)NC(=O)[C@@H]2CCCN2C(=O)[C@@H]2CSSC[C@H](NC(=O)[C@H](CO)NC(=O)[C@H](CC(N)=O)NC(=O)[C@H](CO)NC(=O)[C@H](Cc3ccc(O)cc3)NC(=O)[C@H](CCSC)NC(=O)[C@H](CCCNC(=N)N)NC(=O)CNC(=O)[C@H](Cc3ccccc3)NC(=O)[C@H](CCC(=O)O)NC(=O)[C@H](CC(=O)O)NC(=O)[C@H](Cc3ccccc3)NC(=O)[C@H](C(C)C)NC(=O)[C@@H]3CCCN3C(=O)[C@H](C)NC(=O)[C@H](Cc3ccc(O)cc3)NC1=O)C(=O)N[C@@H](CCC(=O)O)C(=O)N[C@@H](CCSC)C(=O)N[C@@H](CCC(N)=O)C(=O)N[C@@H](CCCNC(=N)N)C(=O)N[C@@H](C)C(=O)N[C@@H](CCCNC(=N)N)C(=O)N[C@H](C(=O)N[C@@H](CC(C)C)C(=O)N[C@@H](CCCNC(=N)N)C(=O)NCC(=O)O)CSSC[C@H](N)C(=O)N1CCC[C@H]1C(=O)N[C@@H](CCC(N)=O)C(=O)N[C@@H](C(C)C)C(=O)N2` [Q10A] (H-CPQVCPAIYAPVFDEFGRMYSNSCEMQRARCLRG-OH; disulfide 1-31, 5-24) showed a Ki of 0.0136 µM.
In the case of `CC[C@H](C)[C@@H]1NC(=O)[C@H](C)NC(=O)[C@@H]2CCCN2C(=O)[C@@H]2CSSC[C@H](NC(=O)[C@H](CO)NC(=O)[C@H](CC(N)=O)NC(=O)[C@H](CO)NC(=O)[C@H](Cc3ccc(O)cc3)NC(=O)[C@H](CCSC)NC(=O)[C@H](CCCNC(=N)N)NC(=O)CNC(=O)[C@H](Cc3ccccc3)NC(=O)[C@H](CCC(=O)O)NC(=O)[C@H](CC(=O)O)NC(=O)[C@H](Cc3ccccc3)NC(=O)[C@H](C(C)C)NC(=O)[C@@H]3CCCN3C(=O)[C@H](CCC(N)=O)NC(=O)[C@H](Cc3ccc(O)cc3)NC1=O)C(=O)N[C@@H](CCC(=O)O)C(=O)N[C@@H](CCSC)C(=O)N[C@@H](CCC(N)=O)C(=O)N[C@@H](CCCNC(=N)N)C(=O)N[C@@H](C)C(=O)N[C@@H](CCCNC(=N)N)C(=O)N[C@H](C(=O)N[C@@H](CC(C)C)C(=O)N[C@@H](CCCNC(=N)N)C(=O)NCC(=O)O)CSSC[C@H](N)C(=O)N[C@@H](C)C(=O)N[C@@H](CCC(N)=O)C(=O)N[C@@H](C(C)C)C(=O)N2` [P2A] (H-CAQVCPAIYQPVFDEFGRMYSNSCEMQRARCLRG-OH; disulfide 1-31, 5-24), the Ki is reported as 0.101 µM.
